From paper PMC5749684, “Tetrahydrocarbazoles are a novel class of potent P-type ATPase inhibitors with antifungal activity” (PLoS ONE, 2018)

How the values were obtained:
HepG2 cells = assay: Hep G2 viability assay (XTT); type: cell-based, human; settings: for EC50: Homo sapiens, HepG2 proliferation, 72 h, XTT; for Fungal growth inhibition versus HepG2 proliferation (in words): comparison of MIC and HepG2 EC50
Protocol: In each well of a 96 well tissue culture plate (Greiner, catalog number GR-655180) 10,000 human hepatocyte HepG2 cells (Sigma-Aldrich, catalog number 85011430) were plated in 200 μL growth media (EMEM (Sigma-Aldrich, catalog number M2279), 2 mM L-Glutamine (Biological Industries, catalog number 03-020-1B), 1% non-essential amino acids (Biosera, catalog number XC-E1154/100), 10% fetal bovine serum (Biological Industries, catalog number BI-04-007-1A)), and incubated overnight at 37°C and 5% CO2. The following day, fresh growth media plus 2 μL compound in DMSO was added. The plate was incubated for a further 72 h at 37°C and 5% CO2. The media was replaced with 100 μL freshly prepared 0.5 mg/mL XTT sodium salt solution (Sigma-Aldrich, catalog number X4251) in RPMI-1640 (Sigma-Aldrich, catalog number R7509) with 3.83 μg/mL phenazine methosulfate (Sigma-Aldrich, catalog number P9625) and incubated 2–3 h at 37°C and 5% CO2. The color reaction was measured on a Victor X5 plate reader (Perkin-Elmer) at OD450, and the half maximal effective concentration (EC50) was calculated indicating the potency of tetrahydrocarbazole derivatives to inhibit HepG2 cell growth. Tamoxifen (Sigma-Aldrich, catalog number 85256) was used as a positive control compound while DMSO served as a negative control.

[1] = system: C. albicans (SC5314) cells; assay: Time-kill assay; type: cell-based, Candida albicans; settings: for Reduction in CFU after 3 h exposure: 20 μM, compared to DMSO treated controls; for Fungicidal or fungistatic activity in time-kill (in words): AMB 0.54 μM, VRC 2.8 μM, 6 and 8 20 μM
Protocol: C. albicans (SC5314) cells (1 x 10^5 CFU/mL) were incubated in 10 mL RPMI-1640 media at 30°C with gentle agitation (150 rpm) in the presence of amphotericin B (0.5 μM), voriconazole (2.8 μM) or tetrahydrocarbazole compound (20 μM). At the indicated time points (0, 3, 6, and 24 h), a 100 μL aliquot was removed, serially diluted (10 fold) in saline (0.9% NaCl), and 30 μL aliquots were spread on YPD agar. CFU were counted after incubation at 30°C for 48 h. C. albicans cells treated with DMSO (1%, v/v) served as a control. 50 CFU/mL was selected as the lower limit of quantitation.

C. albicans cells = assay: Post-antifungal effect determination; type: cell-based, Candida albicans; settings: 1 h exposure of C. albicans; AMB 0.54 μM, VRC 2.8 μM, 6 and 8 20 μM
Protocol: The post-antifungal effect (PAFE) of antifungal drugs on C. albicans was determined as described by others, with modifications. Briefly, 2 × 10^6 CFU/mL C. albicans cells were incubated in 1 mL RPMI-1640 media for 1 h at 30°C with gentle agitation in the presence of amphotericin B (0.54 μM), voriconazole (2.8 μM) or tetrahydrocarbazole compound (20 μM). Cells were subsequently washed in RPMI media 3 times by centrifugation (3 minutes, 5,000 x g) and finally re-suspended in 1 mL fresh RPMI medium and incubated at 30°C for 24 h. At various time intervals, a 100 μL aliquot was removed, serially diluted (10-fold) in saline (0.9% NaCl), and 30 μL aliquots were spread on YPD agar. The agar plates were incubated at 30°C for 48 h and the number of CFU/mL of culture was determined. C. albicans cells treated with DMSO (1%, v/v) served as a control. The number of CFU/mL obtained at specified time intervals was plotted against time (h) following compound removal. An increase in the CFU/mL of culture signifies growth and multiplication of yeast cells. The duration required for the antifungal drug-treated cells to recover from the inhibitory effect of the drug as indicated by an increase in CFU/mL of culture is defined as the PAFE.

[2] = system: yeasts Saccharomyces cerevisiae, Candida albicans, Candida krusei and Candida glabrata; assay: Fungal growth inhibition; type: cell-based; settings: species not given; for MIC: antifungal activity
From the text: Fungal isolates were purchased from American Type Culture Collection, except for C. glabrata strain Cg003, which was kindly provided by Julius Subik, Comenius University in Bratislava, Slovak Republic. Cg003 is a clinical isolate, characterized to be resistant to fluconazole and itraconazole due to overexpression of the multidrug resistance efflux pumps Cdr1p and Cdr2p. Saccharomyces cerevisiae (ATCC 9763), Candida albicans (ATCC 90028), Candida albicans (SC5314), Candida glabrata (ATCC 90030), Candida glabrata (Cg003) and Candida krusei (ATCC 6258) were grown in Sabouraud broth (40 g/L D-glucose, 10 g/L peptone, pH 5.6) or YPD (10 g/L yeast extract, 20 g/L Bacto-peptone, 20 g/L glucose) medium to mid log phase, aliquoted into 20% (v/v) glycerol and cryopreserved as stocks at -80°C. For each growth assay, cells from these stocks were diluted in sterile water to OD600 = 0.025, which corresponds to a final starting inoculum of 0.5–2.5 x 10^5 CFU/mL. Growth assays were carried out by pipetting 3 μL compound dissolved in DMSO, 100 μL cell suspension and 97 μL 2 x RPMI media (20.8 g/L RPMI-1640 (Sigma-Aldrich catalog number R6504) 330 mM MOPS, 36 g/L glucose) into a microtiter plate and incubating for 24 h at 34°C, followed by OD measurement at 490 nm. The minimum inhibitory concentration (MIC) was defined as 50% growth inhibition of the microorganism as this measurement best represented the antifungal activity of the compounds. Standard errors were typically below 5%.

S. cerevisiae cells = assay: Membrane potential study (DiBAC4(3)); type: cell-based, Saccharomyces cerevisiae; settings: 10 μM, 30 minutes exposure, compared to DMSO
Protocol: S. cerevisiae cells were grown to mid-log phase, pelleted at 2,000 x g for 2 minutes and washed twice in buffer A (100 mM MOPS and 1 mM KCl adjusted with Trizma base to pH 7.0). Cells were then resuspended in buffer A to an OD600 of 0.2. For each well 50 μL of buffer A with 3.3 μg/mL propidium iodide (PI) (Thermo Fisher Scientific, catalog number P1304MP) and 1 μg/mL DiBAC4(3) (Sigma-Aldrich, catalog number D8189)) was mixed with 50 μL S. cerevisiae cell suspension and transferred to a 96 well plate containing 1 μL of inhibitor (in DMSO). A lysis control was performed with Reagent Y100 (ChemoMetec). Five thousand cells were measured per experiment with an exposure time of 1000 ms using a NucleoCounter NC-3000 (ChemoMetec). Dark field was used as the masking channel to select the yeast cells, and the DiBAC4(3) ([…]) and PI (ex 630 nm, em 740/60 nm) channels were used to measure the membrane potential and membrane integrity, respectively. Only cells with a pixel size of 10–40 were included in the analysis, to avoid analysis of non-cell artifacts.

Structure (SMILES) | EC50 (HepG2 cells) | Fungal growth inhibition versus HepG2 proliferation (in words) (HepG2 cells) | Reduction in CFU after 3 h exposure [1] | Fungicidal or fungistatic activity in time-kill (in words) [1] | Post-antifungal effect (PAFE) (C. albicans cells) | MIC [2] | DiBAC4(3) fluorescence signal, membrane depolarization (in words) (S. cerevisiae cells) | Antifungal activity (in words) [2]
FC(F)(F)Oc1ccc2c3c([nH]c2c1)C(NCc1ccc(Br)cc1)CCC3 (stereo not shown) [Compound 7] | 14.9 ± 0.26 µM | – | – | – | – | – | – | –
FC(F)(F)Oc1ccc2c3c([nH]c2c1)C(NCc1ccc(Cl)cc1)CCC3 (stereo not shown) [Compound 6] | 16.7 ± 3.54 µM | inhibited fungal growth more strongly than HepG2 proliferation | > 99% | fungistatic activity after 24 h of incubation | 5 h | – | – | –
Cn1c2c(c3cc(Cl)ccc31)CCCC2NCc1ccc(-c2ccccc2)cc1 (stereo not shown) [Compound 11] | > 20 µM | – | – | – | – | > 20 µM | – | –
FC(F)(F)Oc1ccc2c3c([nH]c2c1)C(NCCOc1ccc(Cl)cc1)CCC3 (stereo not shown) [Compound 8] | 13.6 ± 1.33 µM | inhibited fungal growth more strongly than HepG2 proliferation | > 99% | fungistatic activity after 24 h of incubation | 5 h | – | – | –
FC(F)(F)Oc1ccc2[nH]c3c(c2c1)CCCC3NCc1ccc(-c2ccccn2)cc1 (stereo not shown) [Compound 9] | 12.5 ± 3.68 µM | inhibited fungal growth more strongly than HepG2 proliferation | – | – | – | – | – | –
Clc1ccc2[nH]c3c(c2c1)CCCC3NCc1ccc(-c2ccccc2)cc1 (stereo not shown) [Compound 10] | 18.6 ± 1.12 µM | inhibited fungal growth more strongly than HepG2 proliferation | – | – | – | – | slight increase | –
CN1CCC(NC2CCCc3c2[nH]c2cc(OC(F)(F)F)ccc32)CC1 (stereo not shown) [Compound 5] | 4.7 ± 3.4 µM | more potent at inhibiting HepG2 proliferation than fungal growth | – | – | – | – | No significant differences | weak antifungal activity
NC1CCCc2c1[nH]c1cc(OC(F)(F)F)ccc21 (stereo not shown) [Compound 4] | 3.5 ± 1.87 µM | more potent at inhibiting HepG2 proliferation than fungal growth | – | – | – | – | No significant differences | weak antifungal activity
CN(Cc1ccc(-c2ccccc2)cc1)C1CCCc2c1[nH]c1ccc(Cl)cc21 (stereo not shown) [Compound 12] | > 20 µM | – | – | – | – | > 20 µM | – | –
